Data published in US6608061B2, “Bisaryl compound and medicament for cancer treatment comprising the same” (Kyoma Hakko Kogyo Co., Ltd., priority 1997, dated 2003).
Where two headings read alike, the source gives them in different places.

Assays:
[1] = target: T1, human RNR (purified R1 and R2 subunits) (Homo sapiens, UniProt P23921+P31350); experiment: In vitro measurement of human RNR inhibitory activity (conversion of CDP to dCDP, HPLC); type: biochemical; conditions: 100 μM CDP, 37° C., 30 minutes, read-out: RNR Inhibition (IC50)
T1 construct: made in house; host or cells: Escherichia coli BL21(λDE3)pLysS, plasmids pETR1 and pETR2 (pET3a backbone)
T1 sequence (P23921 1-792): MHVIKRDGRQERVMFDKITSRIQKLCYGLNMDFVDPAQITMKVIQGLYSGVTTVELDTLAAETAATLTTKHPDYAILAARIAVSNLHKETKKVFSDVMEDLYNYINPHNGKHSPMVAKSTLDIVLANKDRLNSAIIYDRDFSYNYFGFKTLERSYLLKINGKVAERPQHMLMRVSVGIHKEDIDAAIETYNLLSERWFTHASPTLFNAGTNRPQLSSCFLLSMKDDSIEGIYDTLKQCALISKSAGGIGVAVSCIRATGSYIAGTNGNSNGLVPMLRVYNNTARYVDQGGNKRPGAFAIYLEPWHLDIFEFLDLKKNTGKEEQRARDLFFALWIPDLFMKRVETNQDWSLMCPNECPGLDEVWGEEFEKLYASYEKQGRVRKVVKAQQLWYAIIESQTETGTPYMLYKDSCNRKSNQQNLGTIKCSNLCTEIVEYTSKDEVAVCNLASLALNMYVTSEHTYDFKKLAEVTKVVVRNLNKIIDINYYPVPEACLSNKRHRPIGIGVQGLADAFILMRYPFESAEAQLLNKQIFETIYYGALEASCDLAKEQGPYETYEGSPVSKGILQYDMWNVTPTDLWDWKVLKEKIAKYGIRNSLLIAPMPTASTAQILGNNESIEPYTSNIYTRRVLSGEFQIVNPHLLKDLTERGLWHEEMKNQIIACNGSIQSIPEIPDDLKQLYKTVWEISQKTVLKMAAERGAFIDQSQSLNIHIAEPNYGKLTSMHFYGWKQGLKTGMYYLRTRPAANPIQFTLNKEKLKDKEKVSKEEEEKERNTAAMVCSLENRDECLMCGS
T1 sequence (P31350 1-389): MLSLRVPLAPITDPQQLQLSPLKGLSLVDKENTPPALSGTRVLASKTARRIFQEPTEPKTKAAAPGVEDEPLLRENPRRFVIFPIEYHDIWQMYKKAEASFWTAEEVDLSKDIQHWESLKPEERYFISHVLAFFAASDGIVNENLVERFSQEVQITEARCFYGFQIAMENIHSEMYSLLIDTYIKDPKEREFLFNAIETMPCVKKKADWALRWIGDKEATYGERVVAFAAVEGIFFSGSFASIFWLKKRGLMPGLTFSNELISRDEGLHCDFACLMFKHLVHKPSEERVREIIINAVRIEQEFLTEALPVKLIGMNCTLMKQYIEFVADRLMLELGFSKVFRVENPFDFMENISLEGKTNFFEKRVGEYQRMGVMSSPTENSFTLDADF

HeLa S3 cells = experiment: Test for growth inhibition of HeLa S3 cells; type: cell-based; conditions: HeLa S3 cells, 72 hours with test compound, Cell Proliferation Kit II, read-out: Cell growth inhibition (IC50)
Protocol: Test for Growth Inhibition of Hela S3 Cells
HeLa S3 cells prepared at 1×10^4 cells/ml in MEM culture medium containing 10% fetal bovine serum and 2 mM glutamine were added to each well of a 96-well microtiter plate (0.1 ml for each well). The cells were cultured at 37° C. in a CO2 incubator for 24 hours, and then 0.05 ml of test compound appropriately diluted with the above medium was added to each well, and then the mixture was cultured at 37° C. in a CO2 incubator for 72 hours. After the culture supernatant was removed, each well was washed with 0.1 ml of PBS buffer twice, and 0.1 ml of the aforementioned medium was added to each well again.
Cell Proliferation Kit II (Boehringer Mennheim) was used for measurement of cell number in each well. After a coloring reaction reagent was added, the plate was warmed to 37° C. in a CO2 incubator for 3 hours. Then, absorbances at 490 nm and 655 nm were measured by a microplate reader, and a value (difference of absorbance) was calculated for each well by subtracting the absorbance at […] from the absorbance at 490 nm. By comparing the differences of absorbance for cells without treatment and cells treated with a test compound at a known concentration, a concentration of test compound which inhibited the cell growth by 50% was calculated, and the value obtained was determined as IC50. The values of RNR inhibitory activity obtained in Example 8, and the values of cell growth inhibitory activity obtained in Example 9 are shown in the following tables (the compound numbers used in the tables correspond to the compound numbers shown in the aforementioned tables).

Row | Compound | IC50 [1] [µM] | IC50 (HeLa S3 cells; Homo sapiens, HeLa S3, 72 h) [µM] | IC50 (HeLa S3 cells) [µM]
1 | CC(=O)CN(CCSc1ccc(O)cc1)CCSc1ccc(O)cc1 [Compound 81] | 0.29 | 1.23 | 
2 | Oc1ccc(SCCOCCOCCOCCOCCOCCSc2ccc(O)cc2)cc1 [Compound 173] | 3.63 | 12.9 | 
3 | O=C(CCN(CCSc1ccc(O)cc1)CCSc1ccc(O)cc1)N1CCCCC1 [Compound 108] | 0.64 | 2.64 | 
4 | Oc1ccc(SCC(O)COCCOCC(O)CSc2ccc(O)cc2)cc1 (stereo not shown) [Compound 166] | 3.09 | 31.2 | 
5 | Oc1ccc(SCCCSc2ccc(O)cc2)cc1 [Compound 134] | 0.68 | 2.05 | 
6 | OCC(O)CN(CCSc1ccc(O)cc1)CCSc1ccc(O)cc1 (stereo not shown) [Compound 201] | 2.49 | 4.29 | 
7 | Oc1ccc(SCCOCCOCCOCCOCCSc2ccc(O)cc2)cc1 [Compound 172] | 2.64 | 19.5 | 
8 | OC[C@H]1OC(N(CCSc2ccc(O)cc2)CCSc2ccc(O)cc2)[C@H](O)[C@@H](O)[C@@H]1O (stereo partly shown) [Compound 215] | 3.68 | 12.7 | 
9 | NCCN(CCSc1ccc(O)cc1)CCSc1ccc(O)cc1 [Compound 59] | 5.73 | 5.81 | 
10 | CC1(C)OCC(CN(CCSc2ccc(O)cc2)CCSc2ccc(O)cc2)O1 (stereo not shown) [Compound 200] | 4.2 | 4.13 | 
11 | CS(=O)(=O)NCCN(CCSc1ccc(O)cc1)CCSc1ccc(O)cc1 [Compound 195] | 0.55 | 3.16 | 
12 | Oc1ccc(SCCN(CCSc2ccc(O)cc2)Cc2cccc(O)c2)cc1 [Compound 93] | 0.63 | 9.04 | 
13 | O=C(c1ccccn1)N(CCSc1ccc(O)cc1)CCSc1ccc(O)cc1 [Compound 115] | 4.14 | 6.14 | 
14 | O=C1N(CS(=O)(=O)CCSc2ccc(O)cc2)CCCN1CS(=O)(=O)CCSc1ccc(O)cc1 [Compound 7] | 4.82 | > 101 | 
15 | Oc1ccc(SCCN(CCSc2ccc(O)cc2)Cc2cccnc2)cc1 [Compound 99] | 2.79 | 5.8 | 
16 | O=C(CN(CCSc1ccc(O)cc1)CCSc1ccc(O)cc1)N1CCCCC1 [Compound 203] | 3.18 | 3.45 | 
17 | Oc1ccc(SCCCCCCSc2ccc(O)cc2)cc1 [Compound 137] | 0.87 | 5.45 | 
18 | NC(=O)[C@H]1OC(N(CCSc2ccc(O)cc2)CCSc2ccc(O)cc2)[C@H](O)[C@@H](O)[C@@H]1O (stereo partly shown) [Compound 219] | 3.51 | 25.2 | 
19 | O=CN(CCSc1ccc(O)cc1)CCSc1ccc(O)cc1 [Compound 53] | 1.05 | 1.71 | 
20 | CC1CCc2ccccc2N1C(=O)N(CCSc1ccc(O)cc1)CCSc1ccc(O)cc1 (stereo not shown) [Compound 58] | 4.76 | 18.6 | 
21 | CC(=O)N(CCSc1ccc(O)cc1)CCSc1ccc(O)cc1 [Compound 54] | 0.48 | 4.63 | 
22 | Oc1ccc(SCCCCSc2ccc(O)cc2)cc1 [Compound 135] | 0.43 | 6.02 | 
23 | Oc1ccc(SCCN(CCSc2ccc(O)cc2)Cc2c[nH]cn2)cc1 [Compound 196] | 1.52 | 7.08 | 
24 | Oc1ccc(SCSCSc2ccc(O)cc2)cc1 [Compound 158] | 1.42 | 12.7 | 
25 | O=C(NCCCSc1ccc(O)cc1)C1C2C=CC(C2)C1C(=O)NCCCSc1ccc(O)cc1 (stereo not shown) [Compound 191] | 1.36 | 4.78 | 
26 | C#CCN(CCSc1ccc(O)cc1)CCSc1ccc(O)cc1 [Compound 73] | 0.6 | 1.61 | 
27 | OC[C@@H]1OC(N(CCSc2ccc(O)cc2)CCSc2ccc(O)cc2)[C@H](O)[C@H](O)[C@H]1O (stereo partly shown) [Compound 218] | 4.97 | 23.2 | 
28 | COCC(=O)Oc1ccc(SCCN(CCSc2ccc(OC(=O)COC)cc2)CC(N)=O)cc1 [Compound 220] | 5.2 | 0.29 | 
29 | NC(=O)CN(CCSc1ccc(O)cc1)CCSc1ccc(O)cc1 [Compound 224] |  |  | 0.4
30 | NC(=O)CN(CCSc1ccc(O)cc1)CCSc1ccc(O)cc1 [Compound 225] |  |  | 0.55
